Measurements taken from US20130116326A1, “TREATMENT OF DELAYED CUTANEOUS HYPERSENSITIVITY CONDITIONS WITH S-FARNESYLTHIOSALICYLIC ACID AND ANALOGS THEREOF” (RAMOT AT TEL-AVIV UNIVERSITY LTD., priority 2010, published 2013).
Entries after “also recorded” stand apart in the source; their conditions may differ.

Assays:
[1] = test system: Rap1; assay: Rap1 inhibition by geranylgeranyl analogue (data not shown)
[2] = test system: Rap1; assay: GST pull-down of GTP.Rap1 (Rap1 GTP loading) in Jurkat T cells; type: cell-based, human; conditions: for lowering of the amount of GTP.Rap1: Jurkat T cells treated overnight, then stimulated with anti CD3 antibodies for 10 minutes, FIG. 1C; for ability to inhibit Rap1 activation, comparison among agents: 50 μM overnight; for amount of GTP.Rap1 compared with untreated cells: quiescent Jurkat T cells, treated overnight, 50 μM, FIG. 1A
Experimental: (§1) Jurkat T cells were obtained from the American Type Culture Collection (ATCC) (Manassas, VA). The cells were maintained in RPMI 1640 supplemented with 10% FCS, 2 mM 1-glutamine, and 1% penicillin/streptomycin (Biological Industries, Kibutz Beit Haemek, Israel). Panc-1 cells (ATCC) were grown in Dulbecco's modified Eagle medium (DMEM) containing 10% FCS, 2 mM 1-glutamine, and 1% penicillin/streptomycin. The cells were incubated at 37° C. in a humidified atmosphere of 95% air and 5% CO2. Transfection of Jurkat cells was performed with DMRIE-C (Invitrogen, Carlsbad, Calif.), and cells were examined 24 to 48 hours later. Jurkat T cells were serum starved at 37° C. for 2 to 6 hours, followed by stimulation with 5 μg/ml of mouse anti-human CD3.
(§2) Detection of activated Ras and Rap1 was performed as described previously (4, 9).
Samples were separated by SDS-PAGE using 10% polyacrylamide gels and transferred to nitrocellulose filters. Blots were blocked for 1 hour in TBST (10 mM Tris-HCl (pH 8.0), 150 mM NaCl, and 0.05% Tween 20) containing 3% serum bovine albumin, followed by overnight incubation at 4° C. with the primary antibodies. Blots were washed and incubated for 1 hour at room temperature with HRP-conjugated secondary antibodies. Immunoreactive bands were visualized using the LAS-3000 imaging system (Fujifilm Corp., Tokyo).
The experiments were designed to determine whether FTS and its analogs are able to inhibit GTP loading of Rap1. Quiescent Jurkat T cells were treated overnight with FTS, FTS-A, and FTS-MOM, each at a concentration of 50 μM. Cells were collected and the quantity of GTP.Rap1 was determined by pull-down assay. Compared with untreated cells (control), the amount of GTP.Rap1 decreased in all conditions (FIG. 1A). […] Since Rap1 is activated in T cells as a result of crosslinking the antigen receptor, the effect of FTS, and its analogs, on Rap1 activation in stimulated T cells, was studied. Cells were treated with FTS and its analogs overnight, and subsequently stimulated with anti CD3 antibodies for 10 minutes. […] FTS lowered the amount of GTP.Rap1 by 32%, while FTS-A and FTS-MOM lowered it by 60% and 53%, respectively (FIG. 1C). Thus, FTS and its analogs are able to inhibit Rap1 activation in T cells stimulated through the antigen receptor.

[3] = test system: T cells; assay: Viable cell count by tryptan blue exclusion; type: cell-based; conditions: various concentrations for 72 hours, higher doses, FIG. 3A
Experimental: Thus, this analog was used for further experiments. First, […] were treated with various concentrations of FTS-A for 72 hours.

[4] = test system: Rap1; assay: Confocal microscopy of Rap1 localization and activation in Jurkat T cells; type: cell-based, human
Experimental: Live cells were plated in 35-mm dishes containing a no. 0 glass coverslip over a 15-mm cutout (MatTek, Ashland, Mass). Cells were maintained at 37° C. using a PDMI-2 microincubator (Harvard Apparatus, Holliston, Mass.). Individual cells were imaged before and after addition of stimuli. Images were acquired with a Zeiss 510 inverted laser scanning confocal microscope (Carl Zeiss Microlmaging, Inc., Thornwood, N.Y.) and processed with Adobe Photoshop CS.
It has been reported that only the pool of Rap1 at the plasma membrane becomes GTP bound on lymphocyte activation (9). The following experiments were designed to study whether Rap1 inhibition by FTS-A is indeed restricted to that compartment. Jurkat T cells, expressing GFP tagged Rap1, were subjected to various agents (FIG. 4A), whereas the localization of Rap1 was recorded by confocal microscopy.
The effects of FTS are rather specific to the active GTP-bound forms of Ras proteins (7). To investigate the possible effect of FTS-A on localization of the active Rap1, the probe for activated Rap1, GFP-RBDRALGDS (13), was utilized. […] In cells that were pretreated by FTS-A, the activation of Rap1 at the plasma membrane was blocked (FIG. 4B) although Rap1 remained associated with the plasma membrane (FIG. 4A). Thus, the pool of Rap1 that is inhibited by FTS-A is found at the plasma membrane.

[5] = test system: contact sensitivity reaction to DNFB; assay: Contact sensitivity to DNFB, ear swelling in mice; type: in vivo, BALB/c female mice
Experimental: The Institutional Ethics Committee of Tel Aviv University approved the study. BALB/c female mice at 8 to 10 weeks of age were used. Oral administration of FTS-A required doses of 50 and 100 mg/kg (10). The compound 2,4-dinitro-l-fluorobenzene (DNFB) and olive oil were obtained from Sigma-Aldrich (St. Louis, Mo.). Mice were sensitized on the shaved abdomen with 50 μl of 0.5% DNFB in a vehicle of 4:1 acetone:olive oil. Mice were ear challenged with 20 μl t of 0.2% DNFB in a vehicle of 4:1 acetone:olive oil after 5 days. A constant area of the ears was measured immediately before challenge and 24 hours later with an engineer's micrometer (Ozaki Mfg. Co., Itabashi, Tokyo). Ear swelling was expressed as the difference in ear thickness before and after the challenge (11).
Next, the ability of FTS-A to inhibit Rap-1-dependent T cell adhesion in vivo was investigated by using contact sensitivity (15) as a model system. Animals were treated orally with two different concentrations of FTS-A (50 mg/kg and 100 mg/kg). […] When treatment was introduced only during the challenge phase (days 5-6), ear swelling was also attenuated.

[6] = test system: Rap1; assay: Rap1 GTP loading in Panc-1 cells; type: cell-based; conditions: for inhibition of Rap1 GTP loading: Panc-1 cells, FIG. 6A; for selectivity between Ras and Rap1: profile of inhibition Ras versus Rap1
Experimental: as §1, §2
(§3) Since FTS is known to inhibit Ras, experiments were designed to determine whether the mechanism of Rap1 inhibition by FTS analogs is indirect and mediated by Ras inhibition. Applicants compared the inhibitory profile of FTS and its analogs on both Ras GTP loading and Rap1 GTP loading in Panc-1 cells (FIG. 6B). […] J Med Chem 2009; 52:197-205]. […] Thus, the extent of Ras and Rap1 inhibition by FTS and its analogs is not identical.

[7] = test system: Ras; assay: Ras GTP loading in Panc-1 cells; type: cell-based; conditions: FIG. 6, also as previously reported (ref. 16)
Experimental: as §1, §2, §3

Compound: CC(C)=CCC/C(C)=C/CC/C(C)=C/CC/C(C)=C/CSc1ccccc1C(=O)O [GGTS]
- Rap1 inhibition compared with FTS analogs [1]: did not prove to be a stronger Rap1 inhibitor

Compound: CC(C)=CCCC(C)=CCCC(C)=CCSc1ccccc1C(N)=O [FTS-A, FTS-amide]
- lowering of the amount of GTP.Rap1 [2]: 60%
- ability to inhibit Rap1 activation, comparison among agents ([2]; Jurkat T cells): superior to FTS; also recorded: greatest amount of Rap1 inhibition
- inhibitory effect on Rap1 when Ras is knocked down ([2]; Jurkat T cells, N-Ras and K-Ras knocked down via shRNA, FIG. 6B): unchanged
- amount of GTP.Rap1, dose-response ([2]; higher doses of FTS-A, FIG. 3B): further diminished
- amount of GTP.Rap1 compared with untreated cells [2]: decreased
- number of viable cells [3]: decreased
- activation of Rap1 at the plasma membrane ([4]; GFP-RBDRALGDS probe, pretreated cells stimulated through the antigen receptor, FIG. 4B): blocked
- localization of overexpressed Rap1 ([4]; Jurkat T cells expressing GFP tagged Rap1, treatment up to 72 hours, FIG. 4A): did not change
- localization of Rap-1 ([4]; combined treatment with Bryostatin-1 and FTS-A, FIG. 4A): did not change
- development of contact sensitivity reaction to DNFB ([5]; animal models, dose not given): strongly inhibited
- ear swelling ([5]; oral, 50 mg/kg, FIG. 5A): only the higher concentration of FTS-A was able to inhibit ear swelling
- ear swelling ([5]; oral, 100 mg/kg, FIG. 5A): able to inhibit ear swelling
- ear swelling ([5]; treatment during the sensitization phase (days 0-2), FIG. 5B): did not prevent ear swelling
- ear swelling ([5]; treatment only during the challenge phase (days 5-6), FIG. 5B): attenuated
- inhibition of Rap1 GTP loading [6]: much greater inhibitory activity toward Rap1 than FTS
- selectivity between Ras and Rap1 [6]: inhibited both Ras and Rap1

Compound: COCOC(=O)c1ccccc1SCC=C(C)CCC=C(C)CCC=C(C)C [FTS-MOM, methoxymethyl S-farnesylthiosalicylate]
- lowering of the amount of GTP.Rap1 [2]: 53%
- ability to inhibit Rap1 activation, comparison among agents ([2]; Jurkat T cells): superior to FTS
- amount of GTP.Rap1 compared with untreated cells [2]: decreased
- inhibition of Ras GTP loading [7]: weak Ras inhibitor; also recorded: only a minor inhibitory effect
- inhibition of Rap1 GTP loading [6]: by far the stronger Rap1 inhibitor; also recorded: strong Rap1 inhibitor
- selectivity between Ras and Rap1 [6]: toward Rap1

Compound: CC(C)=CCC/C(C)=C/CC/C(C)=C/CSc1ccccc1C(=O)O [FTS, S-trans,trans-farnesylthiosalicylic acid]
- lowering of the amount of GTP.Rap1 [2]: 32%
- amount of GTP.Rap1 compared with untreated cells [2]: decreased
- activation phase of delayed cutaneous hypersensitivity in vivo ([5]; summary statement): inhibits
- inhibition of Ras GTP loading [7]: comparable to FTS-A
- inhibition of Rap1 GTP loading [6]: relatively modest
- selectivity between Ras and Rap1 [6]: relatively high selectivity of FTS towards Ras
